Article PMC9133036 (Nature Communications, 2022)
Where “and” joins values, the source holds several entries; their conditions need not be identical. Equal values may be shown once. Entries after “also recorded” stand apart in the source; their conditions may differ.

What was measured:
Format in all cases: cell-based
OX2R1-406 = molecular target: T1, OX2R1-406 (Homo sapiens, UniProt O43614); assay: IP accumulation assay, C-terminally truncated OX2R1-406; conditions: for % IP accumulation: OX2R C25 short; for Emax: relative to OX2R WT with the same ligand;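 on % IP accumulation: 100% is the full-length wild-type OX2R maximal IP response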
T1 construct: the receptor construct contained residues 1–406 of wild-type human OX2R; expressed in transfected cells; host or cells: HEK293
T1 sequence (O43614 1-406): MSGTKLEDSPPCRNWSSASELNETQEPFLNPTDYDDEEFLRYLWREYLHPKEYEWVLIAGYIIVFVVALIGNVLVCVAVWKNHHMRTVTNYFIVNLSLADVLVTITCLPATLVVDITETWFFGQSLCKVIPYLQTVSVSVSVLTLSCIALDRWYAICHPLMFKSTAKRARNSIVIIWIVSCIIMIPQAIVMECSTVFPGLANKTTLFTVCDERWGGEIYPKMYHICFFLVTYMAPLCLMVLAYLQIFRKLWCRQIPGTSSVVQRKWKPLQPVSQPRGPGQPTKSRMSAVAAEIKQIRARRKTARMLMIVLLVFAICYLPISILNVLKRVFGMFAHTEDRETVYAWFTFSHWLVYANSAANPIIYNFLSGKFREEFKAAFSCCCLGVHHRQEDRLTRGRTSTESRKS
Protocol: The cloning, expression, purification, cryo-EM data collection, and structure determination for the two OX2R-G protein complexes described in this paper were carried out independently. For the OX2R-mGsqiN complex the receptor construct contained residues 1–406 of wild-type human OX2R (OX2R^1–406). […] The resulting construct was cloned into a modified pFastBac (ThermoFisher) baculovirus expression vector with the HA signal sequence followed by a FLAG tag at the N-terminus. We were unable to isolate a stable complex between OX2R and full-length wild-type Gαq using the co-expression and purification strategy described below. Instead, an engineered Gαq construct called mGαsqiN was made by modifying the chimeric Gα protein ‘mini-Gs/q71’ previously described. Briefly, the linker […] was deleted and residues 1–27 at the N terminus was replaced by residues 1–30 of Gαi1. A second pFastBac baculovirus was made with this mini-GαqiN gene. An additional pFastBac-Dual baculovirus was made with human Gβ1 and human […] genes. An 8xHis tag was placed at the N-terminus of […]. […] After 48 h, cells were harvested and stored at −80 °C.
The IP assay was adapted from a prior precedent. HEK293 cells were maintained in DMEM-high glucose (Millipore Sigma) supplemented with 5% fetal bovine serum (Corning) and penicillin-streptomycin (Millipore Sigma). Receptor constructs used were the full-length wild-type (or mutant) human OX1R and OX2R sequences cloned into pCDNA3. To enhance the Emax in the IP assay, a plasmid encoding full-length human Gαq subunit[66] was co-transfected into HEK293 cells with plasmids encoding orexin receptor constructs using Lipofectamine 3000 (Thermo Fisher). 24 h after transfection, the cells were plated on poly-D-lysine coated (Millipore Sigma) tissue culture-treated 96 well white plates with clear bottoms (Perkin Elmer) at 30,000 cells per well in Inositol-free DMEM (MP Biomedicals) supplemented with 5% fetal bovine serum, 4 mM L-glutamine (Millipore Sigma), penicillin-streptomycin, and about 5 uCi (5 ul) per ml myo-[2-3H] inositol (Perkin Elmer). The following day, the media was replaced with agonists that were diluted in HBSS (Millipore Sigma) containing 10 mM lithium chloride (Millipore Sigma) and incubated at 37 °C for 45 min. Then agonists were removed and cells were lysed on ice for 30 min with 10 mM formic acid (Millipore Sigma). 1.25 mg of poly-lysine coated YSI SPA beads (Perkin Elmer) was added to each well. The plates were mixed on an orbital shaker for 30 min. The plates were read on a MicroBeta scintillation counter (Perkin Elmer) the following day. IP accumulation assays on different constructs were performed in n ≥ 3 independent experiments (each done in duplicate), where n is shown in Supplementary Table 2.

OX2R V114A = molecular target: T2, OX2R V114A (Homo sapiens, UniProt O43614, V114A); assay: β-arrestin PathHunter assay, OX2R V114A
T2 construct: expressed in transfected cells; host or cells: CHO-K1 stably expressing EA β-arrestin2
T2 sequence (O43614 whole entry V114A): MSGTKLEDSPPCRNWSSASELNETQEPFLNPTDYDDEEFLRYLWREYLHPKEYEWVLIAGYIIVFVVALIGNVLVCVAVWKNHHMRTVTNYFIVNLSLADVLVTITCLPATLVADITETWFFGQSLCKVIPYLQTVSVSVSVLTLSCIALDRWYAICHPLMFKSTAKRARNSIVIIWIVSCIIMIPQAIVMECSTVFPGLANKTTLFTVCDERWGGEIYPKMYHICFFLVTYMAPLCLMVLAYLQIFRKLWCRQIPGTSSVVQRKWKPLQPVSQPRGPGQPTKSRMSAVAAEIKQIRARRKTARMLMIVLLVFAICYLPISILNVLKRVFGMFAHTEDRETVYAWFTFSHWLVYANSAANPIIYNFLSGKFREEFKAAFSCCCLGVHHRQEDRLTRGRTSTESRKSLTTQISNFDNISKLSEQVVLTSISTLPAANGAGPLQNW
Protocol: (§1) β-Arrestin recruitment activity was measured by using the PathHunter system (DiscoveRX) according to the manufacturer’s instruction. Receptor constructs used were the full-length wild-type (or mutant) human OX2R sequences cloned into pCMV-ProLink (DiscoveRX). CHO-K1 cells stably expressing EA β-arrestin2 (DiscoveRX) were plated on 384 well white plates (Thermo Fisher) at 4000 cells/well in HamF12 (Wako Pure Chemical Industries) supplemented with 10% fetal bovine serum (Corning) and penicillin-streptomycin (Wako Pure Chemical Industries) and incubated overnight at 37 °C under 5% CO2. Cells were transfected with plasmids encoding wild type or each mutant ProLink-tagged human OX2R using FuGENE HD (Promega). […] Detection reagent was added and incubated for 1 h at room temperature. Luminescent signal was detected using an EnVision plate reader (PerkinElmer). β-arrestin assays on different constructs were performed in two or three independent experiments (each done in quadruplicate). Dose response curves (shown in Supplementary Fig. 8) were fitted to the three-parameter model ‘log(agonist) vs response’ in GraphPad Prism to determine pEC50 values.

OX2R Y354A = molecular target: T3, OX2R Y354A (Homo sapiens, UniProt O43614, Y354A); assay: β-arrestin PathHunter assay, OX2R Y354A; conditions: for beta-arrestin recruitment fold change: Y354A, listed as OxB
T3 construct: expressed in transfected cells; host or cells: CHO-K1 cells stably expressing EA β-arrestin2 (DiscoveRX), transiently transfected with pCMV-ProLink OX2R
T3 sequence (O43614 whole entry Y354A): as the sequence (O43614 whole entry V114A) above, with A114V, Y354A counted along it
T3 sequence (P32121 whole entry partner): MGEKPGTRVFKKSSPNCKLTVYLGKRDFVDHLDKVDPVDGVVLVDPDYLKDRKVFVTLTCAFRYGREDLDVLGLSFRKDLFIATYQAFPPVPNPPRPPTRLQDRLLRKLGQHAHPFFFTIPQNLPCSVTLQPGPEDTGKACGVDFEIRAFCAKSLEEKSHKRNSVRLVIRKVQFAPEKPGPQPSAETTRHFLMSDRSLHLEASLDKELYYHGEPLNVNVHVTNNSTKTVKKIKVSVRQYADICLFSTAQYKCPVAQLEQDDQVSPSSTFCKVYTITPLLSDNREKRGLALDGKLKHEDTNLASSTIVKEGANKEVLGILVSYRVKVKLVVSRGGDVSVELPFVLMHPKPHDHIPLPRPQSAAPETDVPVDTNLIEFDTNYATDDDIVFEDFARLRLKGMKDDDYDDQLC
Protocol: as §1

human OX2R = molecular target: T4, human OX2R (Homo sapiens, UniProt O43614); assay: Inhibition of forskolin-stimulated cAMP production (Gi signaling), OX2R + Gαi1; conditions: for stimulation of Gi1 as reduction in cAMP levels after forskolin treatment: HEK293 cells transfected with OX2R and Gαi1; for % Forskolin stimulation: OX2R + Gi
T4 construct: expressed in transfected cells; host or cells: HEK293
T4 sequence (O43614 1-444): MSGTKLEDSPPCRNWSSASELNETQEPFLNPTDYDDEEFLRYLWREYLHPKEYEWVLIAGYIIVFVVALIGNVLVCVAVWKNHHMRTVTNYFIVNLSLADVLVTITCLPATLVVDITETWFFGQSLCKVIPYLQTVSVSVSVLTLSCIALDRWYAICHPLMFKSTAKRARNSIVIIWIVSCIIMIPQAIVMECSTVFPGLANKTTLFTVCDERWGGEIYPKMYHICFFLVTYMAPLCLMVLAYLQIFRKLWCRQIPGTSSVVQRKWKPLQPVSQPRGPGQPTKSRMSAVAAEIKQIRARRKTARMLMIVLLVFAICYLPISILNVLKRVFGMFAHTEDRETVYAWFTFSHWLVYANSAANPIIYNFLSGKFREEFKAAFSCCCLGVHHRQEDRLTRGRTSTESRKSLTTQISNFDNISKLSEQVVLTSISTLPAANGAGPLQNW
Protocol: To measure Gi signaling[67], HEK293 cells were transfected with pGloSensor™−22F cAMP Plasmid (Promega) and CMV expression plasmid encoding human OX2R. To enhance the signal for the cAMP assay, we co-transfected a Gi expression plasmid (CMV-driven) in which the full-length human Gαi1 subunit sequence was cloned into pcDNA3. The following day, cells were harvested and washed with assay buffer, HBSS with 20 mM HEPES pH 7.4 (Millipore Sigma). Cells were suspended in assay buffer containing 0.5 mg/ml Luciferin (Gold Biotechnology) and plated on 96 well tissue culture-treated white plates with opaque bottoms (Thermo Fisher). The cells were incubated at 37 °C for 90 min. Forskolin (Millipore Sigma) diluted in assay buffer was added to wells for a final concentration of 5 mM. Luminescence was read at room temperature repeatedly in a CLARIOstar microplate reader (BMG Labtech) until the signal stopped increasing. Agonist diluted in assay buffer was added from a 7X stock and again the plates were read repeatedly until the signal was stable.

## COC(=O)N1CCC[C@H](NS(C)(=O)=O)[C@@H]1CO[C@H]1CC[C@@H](c2ccccc2)CC1 [TAK-925, methyl (2R,3S)−3-[(methylsulfonyl)amino]−2-{[(cis−4-phenylcyclohexyl)oxy]methyl}piperidine-1-carboxylate]
OX2R1-406; IP accumulation
  EC50: 5.4 nM
OX2R1-406; TAK-925 conc (log, M) -7.39
  % IP accumulation: 102.09% and 80.64% and 87.71% and 69.65% and 70.45% and 93.38%
OX2R1-406; TAK-925 conc (log, M) -7.86
  % IP accumulation: 87.29% and 59.28% and 70.66% and 54.93% and 62.49% and 77.19%
OX2R1-406
  Emax: 100
OX2R V114A; β-arrestin recruitment
  EC50: 2200 nM
OX2R Y354A; β-arrestin recruitment
  EC50: 2400 nM
Human OX2R
  stimulation of Gi1 as reduction in cAMP levels after forskolin treatment: poor ability to stimulate Gi1; also recorded: minimal diminution of cAMP signal
Human OX2R; log [Agonist] -5.00
  % Forskolin stimulation: 72.69% and 86.21% and 88.94%
Human OX2R; log [Agonist] -5.52
  % Forskolin stimulation: 88.35% and 93.40% and 97.54%
Human OX2R; log [Agonist] -6.00
  % Forskolin stimulation: 94.60% and 96.68% and 103.97%
Human OX2R; log [Agonist] -6.52
  % Forskolin stimulation: 100.56% and 102.28% and 109.64%
Human OX2R; log [Agonist] -7.00
  % Forskolin stimulation: 100.76% and 107.19% and 105.95%
Human OX2R; log [Agonist] -7.52
  % Forskolin stimulation: 105.87% and 108.11% and 120.96%
Human OX2R; log [Agonist] -8.00
  % Forskolin stimulation: 107.95% and 108.44% and 107.03%
Human OX2R; log [Agonist] -8.52
  % Forskolin stimulation: 103.47% and 109.30% and 118.87%

## orexin B
OX2R1-406; OXB conc (log, M) -6.95, listed as OXB
  % IP accumulation: 116.05% and 97.72% and 102.67% and 64.00% and 80.15% and 76.35% and 110.96%
OX2R1-406; OXB conc (log, M) -7.43, listed as OXB
  % IP accumulation: 91.34% and 86.13% and 87.29% and 57.27% and 82.96% and 71.01% and 111.84%
OX2R1-406; OXB conc (log, M) -7.91, listed as OXB
  % IP accumulation: 79.86% and 83.63% and 74.72% and 64.39% and 71.59% and 62.47% and 94.62%
OX2R1-406; OXB conc (log, M) -8.39, listed as OXB
  % IP accumulation: 46.18% and 59.23% and 44.98% and 53.61% and 63.91% and 47.69% and 72.05%
OX2R1-406; OXB conc (log, M) -9.82, listed as OXB
  % IP accumulation: 4.24% and 6.17% and 0.00% and 5.40% and 1.80% and 6.02% and 6.79%
OX2R1-406; OXB conc (log, M) -10.29, listed as OXB
  % IP accumulation: 0.00% and 3.23%
OX2R1-406
  Emax: 100
OX2R V114A; V114A, OxB concentration -8.00 (log, M), listed as OxB
  beta-arrestin recruitment fold change: 1.594 fold and 2.704 fold and 1.365 fold and 1.888 fold
OX2R Y354A; OxB concentration -6.00 (log, M)
  beta-arrestin recruitment fold change: 9.833 fold and 7.839 fold and 7.764 fold and 5.538 fold
OX2R Y354A; OxB concentration -6.52 (log, M)
  beta-arrestin recruitment fold change: 8.222 fold and 8.331 fold and 7.995 fold and 7.023 fold
OX2R Y354A; OxB concentration -7.00 (log, M)
  beta-arrestin recruitment fold change: 7.061 fold and 6.164 fold and 4.831 fold and 5.998 fold
OX2R Y354A; OxB concentration -7.52 (log, M)
  beta-arrestin recruitment fold change: 3.021 fold and 4.546 fold and 4.264 fold and 4.947 fold
OX2R Y354A; OxB concentration -8.00 (log, M)
  beta-arrestin recruitment fold change: 1.570 fold and 2.249 fold and 1.723 fold and 2.390 fold
OX2R Y354A; OxB concentration -8.52 (log, M)
  beta-arrestin recruitment fold change: 0.925 fold and 1.624 fold and 1.133 fold and 1.227 fold
OX2R Y354A; OxB concentration -9.00 (log, M)
  beta-arrestin recruitment fold change: 0.997 fold and 0.922 fold and 1.331 fold and 1.082 fold
OX2R Y354A; OxB concentration -10.00 (log, M)
  beta-arrestin recruitment fold change: 1.135 fold and 1.096 fold and 1.298 fold and 1.060 fold
Human OX2R
  stimulation of Gi1 as reduction in cAMP levels after forskolin treatment: poor ability to stimulate Gi1; also recorded: minimal diminution of cAMP signal
Human OX2R; log [Agonist] -5.00, listed as OXB
  % Forskolin stimulation: 62.35% and 75.49% and 85.20%
Human OX2R; log [Agonist] -5.52, listed as OXB
  % Forskolin stimulation: 65.51% and 74.64% and 79.34%
Human OX2R; log [Agonist] -6.00, listed as OXB
  % Forskolin stimulation: 67.69% and 72.61% and 81.55%
Human OX2R; log [Agonist] -6.52, listed as OXB
  % Forskolin stimulation: 83.40% and 83.94% and 91.79%
Human OX2R; log [Agonist] -7.00, listed as OXB
  % Forskolin stimulation: 104.15% and 101.20% and 102.30%
Human OX2R; log [Agonist] -7.52, listed as OXB
  % Forskolin stimulation: 105.47% and 101.46% and 103.50%
Human OX2R; log [Agonist] -8.00, listed as OXB
  % Forskolin stimulation: 105.90% and 100.54% and 102.29%
Human OX2R; log [Agonist] -8.52, listed as OXB
  % Forskolin stimulation: 101.42% and 105.57% and 98.48%
